Literature values as cited in patent US20090054493A1, “THIAZOLE DERIVATIVES AS PPAR DELTA LIGANDS AND THEIR MANUFACTURING PROCESS” (priority 2005, published 2009).
pEC50: −log10 of the molar value.

Tests used:
[1] = target: T1, PPARγ (Mus musculus, UniProt P37238); details: test on rodents, background art; cited from earlier work
T1 sequence (P37238 1-505): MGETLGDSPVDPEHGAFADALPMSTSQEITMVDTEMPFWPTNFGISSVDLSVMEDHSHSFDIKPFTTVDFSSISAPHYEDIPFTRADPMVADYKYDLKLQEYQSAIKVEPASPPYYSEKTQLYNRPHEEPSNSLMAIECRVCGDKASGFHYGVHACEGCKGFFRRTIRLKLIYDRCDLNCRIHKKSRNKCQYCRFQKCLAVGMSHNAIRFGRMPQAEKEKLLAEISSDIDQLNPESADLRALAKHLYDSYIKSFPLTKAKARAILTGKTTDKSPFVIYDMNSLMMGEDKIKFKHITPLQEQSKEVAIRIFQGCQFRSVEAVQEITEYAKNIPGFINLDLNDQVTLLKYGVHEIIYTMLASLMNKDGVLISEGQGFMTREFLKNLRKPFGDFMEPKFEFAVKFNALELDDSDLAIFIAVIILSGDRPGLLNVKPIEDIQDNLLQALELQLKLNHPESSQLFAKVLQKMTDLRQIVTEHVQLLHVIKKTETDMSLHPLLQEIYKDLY

[2] = target: T2, PPARδ (Homo sapiens, UniProt Q03181); details: background art, cited from earlier work
T2 sequence (Q03181 1-441): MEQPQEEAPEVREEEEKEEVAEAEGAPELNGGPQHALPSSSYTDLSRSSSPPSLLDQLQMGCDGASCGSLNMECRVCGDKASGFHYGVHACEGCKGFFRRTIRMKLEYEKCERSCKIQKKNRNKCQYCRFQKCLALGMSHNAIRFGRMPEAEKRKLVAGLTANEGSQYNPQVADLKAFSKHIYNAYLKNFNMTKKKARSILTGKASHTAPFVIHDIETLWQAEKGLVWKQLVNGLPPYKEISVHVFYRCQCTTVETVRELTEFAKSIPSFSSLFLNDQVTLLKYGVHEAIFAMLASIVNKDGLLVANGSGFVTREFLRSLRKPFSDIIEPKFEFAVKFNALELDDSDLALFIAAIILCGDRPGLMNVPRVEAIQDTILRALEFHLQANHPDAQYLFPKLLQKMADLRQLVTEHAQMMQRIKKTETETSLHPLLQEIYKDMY

CCCc1c(OCCCOc2ccc(OCC(=O)O)cc2)ccc(C(C)=O)c1O [Example L-165041]
selectivity for PPARγ [1]: almost no selectivity
selectivity for hPPARδ than PPARα and PPARγ [2]: 10 fold
pEC50 ([2]; hPPARδ): 6.28
